Reference: patent EP4818168A1, “FUSED RING COMPOUND, PHARMACEUTICAL COMPOSITION THEREOF AND USE THEREOF” (priority 2023, dated 2025)
Like-named read-outs stand apart in the source and are kept apart here.

Columns and labels:
[1] = biological target: T1, AURKA (Homo sapiens, UniProt O14965); format: cell-based
T1 construct: endogenous in cells; host or cells: Jurkat cells
T1 sequence (O14965 1-403): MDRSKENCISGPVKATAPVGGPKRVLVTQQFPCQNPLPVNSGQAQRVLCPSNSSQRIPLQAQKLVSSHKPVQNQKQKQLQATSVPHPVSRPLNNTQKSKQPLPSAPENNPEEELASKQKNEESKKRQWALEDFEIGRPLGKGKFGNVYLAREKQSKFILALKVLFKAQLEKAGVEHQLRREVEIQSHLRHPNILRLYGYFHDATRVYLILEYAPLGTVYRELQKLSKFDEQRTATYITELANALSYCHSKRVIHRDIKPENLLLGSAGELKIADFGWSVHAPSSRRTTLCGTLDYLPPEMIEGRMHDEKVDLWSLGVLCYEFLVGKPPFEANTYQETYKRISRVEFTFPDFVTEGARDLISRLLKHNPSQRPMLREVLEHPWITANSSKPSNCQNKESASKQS
Procedure, shortened: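 Jurkat cells seeded at 1×10^6 cells/500 µL and treated with compound; lysates run on SDS-PAGE, blotted to nitrocellulose and probed overnight at 4°C for AURKA. Chemiluminescent or fluorescent band intensity fitted to a curve to give DC50 for protein degradation.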

[2] = tested on: HCC1806 cells; test: CTG assay of compound inhibition on cell viability (HCC1806 cells); format: cell-based; settings: Homo sapiens, read-out: IC50 in HCC1806 Cells
Description: CellTiter-Glo (CTG) is a rapid cell viability test method based on ATP detection. […] Adenosine triphosphate (ATP) participates in various enzymatic reactions in organisms and is an indicator of living cell metabolism. Its content directly reflects the number of living cells and cell status. During the experiment, equal volume of CTG reagent is added to the cultured cells to measure the luminescence value. The chemiluminescent signal value is proportional to the amount of ATP, thus reflecting the number of viable cells. Therefore, cell viability can be obtained by detecting the ATP content. Compounds that affect cell viability will inhibit cell viability in a concentration-dependent manner, allowing a curve to be fitted to obtain the IC50 value.
The experimental procedure is as follows: • 11. Place the cell suspension in a 15 mL centrifuge tube, centrifuge at 1000 rpm for 5 min at room temperature, discard the supernatant, and collect the cell pellet. • 12. Resuspend the cell pellet with preheated complete cell culture medium (RPMI1640+10%FBS+1%PS), and use a Countess® automated cell counter to detect cell viability and density. The cell viability must be above 90%. • 13. […] Transfer the compound solution to a 96-well plate seeded with cells (final concentration of DMSO 0.1%), and place in a cell incubator at 37°C, 5% CO2 for 6 days. • 15. […] Protect from light during the whole process. Perform optical signal readings using a SpectraMax i3x reader. • 16. Data analysis: Remaining activity (%) = 100% * (1 - ((LumDMSO - Lummedium) - Lumsample) / (LumDMSO - LumPBS/medium)). Use GraphPad Prism 9.0 software to draw an S-shaped dose-survival rate curve and calculate the IC50 value using a nonlinear regression model.

[3] = 100 nM compound, Jurkat cells, 24 h, Table 1
[4] = 1 µM compound, Jurkat cells, 24 h, Table 1

SMILES	Percentage of AURKA Degradation Induced by 100 nM Compound in Jurkat Cells [1, 3]	Percentage of AURKA Degradation Induced by 1 µM Compound in Jurkat Cells [1, 4]	IC50 ([2]; HCC1806, 144 h) [nM]	Percentage of AURKA Degradation Induced by 100 nM Compound in Jurkat Cells [1]	Percentage of AURKA Degradation Induced by 1 µM Compound in Jurkat Cells [1]	IC50 ([2]; 144 h, HCC1806 cells, 6 days, CellTiter-Glo) [nM]
O=C1CCN(c2ccc(N3CCC4(CC3)CC(NC(=O)c3ccc(Nc5ncc6c(n5)-c5ccc(Cl)cc5C(c5c(F)cccc5F)=NC6)cc3)C4)cc2)C(=O)N1 [Compound A37]	+++ (Degradation > 70%)	+++ (Degradation > 70%)	< 1000			
O=C1CCN(c2ccc(N3CC4(CCC(NC(=O)c5ccc(Nc6ncc7c(n6)-c6ccc(Cl)cc6C(c6c(F)cccc6F)=NC7)cc5)CC4)C3)nc2)C(=O)N1 [Compound A61]	+++ (Degradation > 70%)	+++ (Degradation > 70%)	< 1000			
O=C1CCN(c2ccc(N3CCC(CNC(=O)c4ccc(Nc5ncc6c(n5)-c5ccc(Cl)cc5C(c5c(F)cccc5F)=NC6)cc4)CC3)cc2)C(=O)N1 [Compound A12]	+ (Degradation ≤ 30%)	+ (Degradation ≤ 30%)	< 1000			
O=C1CCN(c2ccc(N3CC(CN4CC(NC(=O)c5ccc(Nc6ncc7c(n6)-c6ccc(Cl)cc6C(c6c(F)cccc6F)=NC7)cc5)C4)C3)cc2)C(=O)N1 [Compound A70]	+++ (Degradation > 70%)	+++ (Degradation > 70%)	< 1000			
O=C1CCC(N2CCN(C3CN(CCNC(=O)c4ccc(Nc5ncc6c(n5)-c5ccc(Cl)cc5C(c5c(F)cccc5F)=NC6)cc4)C3)CC2=O)C(=O)N1 (stereo not drawn) [Compound A75]			1000 to 10000	++ (key: +: Degradation ≤ 30%; ++: 30% < Degradation ≤ 70%; +++: Degradation > 70%)	++ (key: +: Degradation ≤ 30%; ++: 30% < Degradation ≤ 70%; +++: Degradation > 70%)	
O=C1CCN(c2cccc(N3CC(CN4CC(NC(=O)c5ccc(Nc6ncc7c(n6)-c6ccc(Cl)cc6C(c6c(F)cccc6F)=NC7)cc5)C4)C3)c2)C(=O)N1 [Compound A72]	+++ (Degradation > 70%)	+++ (Degradation > 70%)	< 1000			
COc1cc(Nc2ncc3c(n2)-c2ccc(Cl)cc2C(c2c(F)cccc2OC)=NC3)ccc1C(=O)NCCN1CCC(c2ccc(N3CCC(=O)NC3=O)cn2)CC1 [Compound A16]	+++ (Degradation > 70%)	++ (30% < Degradation ≤ 70%)	< 1000			
COc1cc(Nc2ncc3c(n2)-c2ccc(Cl)cc2C(c2c(F)cccc2OC)=NC3)ccc1C(=O)N1CC2(CCN(c3ccc(N4CCC(=O)NC4=O)cc3)CC2)C1 [Compound A42]	+ (Degradation ≤ 30%)	+ (Degradation ≤ 30%)	> 10000			
COc1cc(Nc2ncc3c(n2)-c2ccc(Cl)cc2C(c2c(F)cccc2OC)=NC3)ccc1C(=O)NCCN1CCN(c2ncc(N3CCC(=O)NC3=O)s2)CC1 [Compound A24]	+++ (Degradation > 70%)	++ (30% < Degradation ≤ 70%)	< 1000			
COc1cc(Nc2ncc3c(n2)-c2ccc(Cl)cc2C(c2c(F)cccc2OC)=NC3)ccc1C(=O)N(C)CCCCCNc1cccc2c1C(=O)N(C1CCC(=O)NC1=O)C2=O (stereo not drawn) [Compound A2]	++ (30% < Degradation ≤ 70%)	++ (30% < Degradation ≤ 70%)				< 1000
COc1cc(Nc2ncc3c(n2)-c2ccc(Cl)cc2C(c2c(F)cccc2OC)=NC3)ccc1C(=O)NCCN1CCN(c2cccn3c(N4CCC(=O)NC4=O)cnc23)CC1 [Compound A21]	+++ (Degradation > 70%)	+++ (Degradation > 70%)	< 1000			
O=C1CCN(c2cccc(N3CC(N4CC(NC(=O)c5ccc(Nc6ncc7c(n6)-c6ccc(Cl)cc6C(c6c(F)cccc6F)=NC7)cc5)C4)C3)c2)C(=O)N1 [Compound A74]	++ (30% < Degradation ≤ 70%)	++ (30% < Degradation ≤ 70%)	< 1000			
COc1cc(Nc2ncc3c(n2)-c2ccc(Cl)cc2C(c2c(F)cccc2OC)=NC3)ccc1C(=O)N[C@H]1C[C@H](C#Cc2cccc3c2CN(C2CCC(=O)NC2=O)C3=O)C1 (relative stereo) [Compound A7]			1000 to 10000	++ (key: +: Degradation ≤ 30%; ++: 30% < Degradation ≤ 70%; +++: Degradation > 70%)	++ (key: +: Degradation ≤ 30%; ++: 30% < Degradation ≤ 70%; +++: Degradation > 70%)	
COc1cccc(F)c1C1=NCc2cnc(Nc3ccc(C(=O)NC4CC5(C4)CN(c4cccc(N6CCC(=O)NC6=O)c4)C5)cc3)nc2-c2ccc(Cl)cc21 [Compound A63]	++ (30% < Degradation ≤ 70%)	++ (30% < Degradation ≤ 70%)	< 1000			
COc1cccc(F)c1C1=NCc2cnc(Nc3ccc(C(=O)NCCN4CCN(c5ccc(N6CCC(=O)NC6=O)cn5)C(=O)C4)cc3)nc2-c2ccc(Cl)cc21 [Compound A65]	+++ (Degradation > 70%)	++ (30% < Degradation ≤ 70%)	< 1000			
COc1cc(Nc2ncc3c(n2)-c2ccc(Cl)cc2C(c2c(F)cccc2OC)=NC3)ccc1C(=O)N(C)C1CC2(CCN(c3ccc(N4CCC(=O)NC4=O)cc3)CC2)C1 [Compound A40]	++ (30% < Degradation ≤ 70%)	+ (Degradation ≤ 30%)	< 1000			
COc1cc(Nc2ncc3c(n2)-c2ccc(Cl)cc2C(c2c(F)cccc2OC)=NC3)ccc1C(=O)NCCOCCNc1ccn2c(N3CCC(=O)NC3=O)cnc2c1 [Compound A32]	+ (Degradation ≤ 30%)	+ (Degradation ≤ 30%)	> 10000			
COc1cc(Nc2ncc3c(n2)-c2ccc(Cl)cc2C(c2c(F)cccc2OC)=NC3)ccc1C(=O)NCCN1CCC(c2ccc(N3CCC(=O)NC3=O)cc2)CC1 [Compound A15]	+++ (Degradation > 70%)	+++ (Degradation > 70%)	< 1000			
COc1cc(Nc2ncc3c(n2)-c2ccc(Cl)cc2C(c2c(F)cccc2OC)=NC3)ccc1C(=O)NC1CC2(C1)CN(c1ccc(N3CCC(=O)NC3=O)cc1)C2 [Compound A58]	++ (30% < Degradation ≤ 70%)	++ (30% < Degradation ≤ 70%)	< 1000			
O=C1CCN(c2ccc(N3CC4(CCC(NC(=O)c5ccc(Nc6ncc7c(n6)-c6ccc(Cl)cc6C(c6c(F)cccc6F)=NC7)cc5)CC4)C3)cc2)C(=O)N1 [Compound A56]	+++ (Degradation > 70%)	+++ (Degradation > 70%)	< 1000			
